Assay results reported in publication PMC5561212, “In Vitro Micropatterned Human Pluripotent Stem Cell Test (µP-hPST) for Morphometric-Based Teratogen Screening” (Scientific Reports, 2017).
In brackets after ≈: the same amount, converted by molar mass. Where two headings read alike, the source gives them in different places.

Columns and labels:
[1] = cited from earlier work
hPSC = test system: hPSC; set-up: method as in PMID 24123775; settings: cited from earlier work
[2] = test system: human pluripotent stem cells; set-up: method as in PMID 24154490; settings: cited from earlier work
[3] = test system: µP-hPSC colonies (H9) under mesoendoderm induction; experiment: µP-hPST: mesoendoderm pattern disruption in µP-hPSC colonies and two-step teratogen classification; settings: for Teratogenicity in µP-hPST / Teratogenicity in µP-hPST (in words): two-step classification rule
[4] = cited from earlier work; for In vivo teratogenicity (in words): Supplementary Tables S2, S3; for In vivo teratogenicity: Table 1, known teratogenicity
[5] = test system: µP-hPSC colonies (H9) under mesoendoderm induction; set-up: method as in earlier work; settings: compounds tested previously; cited from earlier work
[6] = test system: adult human dermal fibroblasts (aHDF); experiment: Cytotoxicity assay (MTS), general cytotoxicity; type: cell-based; settings: aHDF cells, 3 days, 25% inhibitory concentration
Protocol: (§1) A set of 30 compounds of known teratogenicity was selected to establish and validate the µP-hPST (Table 1). The compounds include equal number of non-teratogens and teratogens, and differ in chemical property and therapeutic usage. Before tested in the µP-hPSC colonies, the cytotoxicity profile of each compound was acquired. Two cell lines, hPSC line H9 and adult human dermal fibroblast line aHDF, were tested to represent embryonic cytotoxicity and general cytotoxicity of the compound respectively (Supplementary Figs S1, S2). The IC25 values, which were the 25% inhibitory concentrations, were calculated as the highest non-cytotoxic concentrations of the compound (Table 2, Fig. 1).
(§2) Human embryonic cell line H9 (WiCell Research Institute, Inc) and adult human dermal fibroblast (aHDF, Lonza) were cultured as previously described. Briefly, H9 cells were cultured in tissue culture plates coated with Matrigel^TM (354277, BD Biosciences) in mTeSR^TM1 medium (05850, StemCell^TM Technologies). Dispase (07923, StemCell^TM Technologies) treatment and mechanical scraping were applied during normal subculture. The aHDF cells was cultured in DMEM medium (10569-010, Gibco), supplemented with 10% FBS (SV30160.03, Thermo Scientific Hyclone) and 1% Pen-Strep (09367-34, Nacalai Tesque). Cells were subcultured every 5–6 days using 0.25% Trypsion-EDTA (25200-114, Gibco) to detach the cells.
(§3) The adverse effect of test compounds on cell proliferation and viability was detected using CellTiter 96® AQueous One Solution Cell Proliferation Assay (MTS, G3580, Promega). 10,000 H9 cells or 500 aHDF cells were seeded in 96-well tissue culture plates. For H9 cells, Matrigel^TM was coated before seeding. For each compound, 8 concentrations from serial 5-fold dilutions were tested besides the vehicle controls. Cells were cultured for 3 days with medium half change every day before cell viability was measured. Each drug was tested in three independent runs and its IC25 values (inhibitory concentrations which can cause 25% of reduction in cell number) were acquired by logistic regression using OriginPro 9.

[7] = test system: human embryonic cell line H9; experiment: Cytotoxicity assay (MTS), embryonic cytotoxicity; type: cell-based; settings: H9 cells, 3 days, 25% inhibitory concentration
Protocol: as §1, §2, §3

[8] = test system: mouse embryonic stem cell; set-up: method as in PMID 19678733; settings: cited from earlier work
[9] = test system: µP-hPSC colonies (H9) under mesoendoderm induction
[10] = human plasma, ref U.S. FDA website, EMA website or published journals (Supplementary Table S1)

O=c1[nH]cc(F)c(=O)[nH]1 [5-Fluorouracil]
Cmax [1, 10]: 48400 ng/mL
Teratogenicity in other in vitro assays (hPSC): TER[6], [7]
Teratogenicity in other in vitro assays [2]: TER[6], [7]
Mesoendoderm pattern disruption seen in T fluorescent images ([3]; 3 days of compound exposure, in words): promote both cell differentiation and migration
Teratogenicity in µP-hPST [3]: TER
In vivo teratogenicity (in words) [4]: Teratogen
In vivo teratogenicity [4]: TER

CC(C)(S)[C@@H](N)C(=O)O [D-penicillamine]
Cmax ([1]; compounds tested previously): 200000 ng/mL
LDC [5]: 200 µg/mL
Teratogenicity in µP-hPST (in words) [3]: Teratogen
In vivo teratogenicity (in words) [4]: Teratogen

COc1cccc2c1C(=O)c1c(O)c3c(c(O)c1C2=O)C[C@@](O)(C(=O)CO)C[C@@H]3O[C@H]1C[C@H](N)[C@H](O)[C@H](C)O1 [Doxorubicin]
Cmax [1, 10]: 370 ng/mL
Teratogenicity in other in vitro assays [2]: TER[7]
IC25aHDF ([6]; listed as Doxirubicin): < 1 µg/mL
IC25H9 [7]: 0.0002 µg/mL (≈ 0.000368 µM)
IC25H9 ([7]; listed as Doxirubicin): < 1 µg/mL
Teratogenicity in µP-hPST [3]: TER
In vivo teratogenicity (in words) [4]: Teratogen
In vivo teratogenicity [4]: TER

COc1ccc2nc([S@@+]([O-])Cc3ncc(C)c(OC)c3C)[nH]c2c1 [Esomeprazole]
Cmax [1, 10]: 1620 ng/mL
Teratogenicity in other in vitro assays [2]: NON[7]
IC25aHDF [6]: 42.1 µg/mL (≈ 122 µM)
IC25H9 [7]: 38.9 µg/mL (≈ 113 µM)
Teratogenicity in µP-hPST [3]: NON
In vivo teratogenicity [4]: NON

NS(=O)(=O)c1cc(C(=O)O)c(NCc2ccco2)cc1Cl [Furosemide]
Classification in mEST (in words) [8]: misclassified
Teratogenicity in other in vitro assays [8]: NON[28]
IC25aHDF [6]: 30 µg/mL (≈ 90.7 µM)
IC25H9 [7]: 362 µg/mL (≈ 1090 µM)
Teratogenicity in µP-hPST [3]: TER
Teratogenicity in µP-hPST (in words) [3]: teratogen
In vivo teratogenicity (in words) [4]: Teratogen
In vivo teratogenicity [4]: TER

C[C@](N)(Cc1ccc(O)c(O)c1)C(=O)O [Methyldopa]
Cmax [1, 10]: 7500 ng/mL
Teratogenicity in other in vitro assays [2]: NON[7]
IC25aHDF [6]: 15.9 µg/mL (≈ 75.3 µM)
IC25H9 [7]: 23.2 µg/mL (≈ 110 µM)
Teratogenicity in µP-hPST [3]: NON
In vivo teratogenicity [4]: NON

CC1=C(/C=C/C(C)=C/C=C/C(C)=C/C(=O)O)C(C)(C)CCC1 [Retinoid acid]
Cmax ([1]; compounds tested previously): 347 ng/mL
LDC [5]: 0.00036 µg/mL
Step1: Is LDC <= IC25 aHDF & IC25H9? [9]: Y
Teratogenicity in µP-hPST (in words) [9]: Teratogen
In vivo teratogenicity (in words) [4]: Teratogen

O=C1CCC(N2C(=O)c3ccccc3C2=O)C(=O)N1 (centres unmarked) [Thalidomide]
Cmax ([1]; compounds tested previously, read-out: Cmax): 10.9 µM
LDC [5]: 30 µM
Teratogenicity in µP-hPST (in words) [3]: Teratogen
In vivo teratogenicity (in words) [4]: Teratogen

CCCC(CCC)C(=O)O [Valproic acid]
LDC [5]: 100 µM
Teratogenicity in µP-hPST (in words) [3]: Teratogen
In vivo teratogenicity (in words) [4]: Teratogen

COc1cc2c(Nc3ccc(Br)cc3F)ncnc2cc1OCC1CCN(C)CC1 [Vandetanib]
Cmax [1, 10]: 400 ng/mL
Teratogenicity in other in vitro assays [2]: TER[7]
IC25aHDF [6]: 1.1 µg/mL (≈ 2.31 µM)
IC25H9 [7]: 0.3 µg/mL (≈ 0.631 µM)
Teratogenicity in µP-hPST [3]: TER
In vivo teratogenicity (in words) [4]: Teratogen
In vivo teratogenicity [4]: TER

O=C1Cc2cc(CCN3CCN(c4nsc5ccccc45)CC3)c(Cl)cc2N1 [Ziprasidone]
Cmax [1, 10]: 200 ng/mL
Teratogenicity in other in vitro assays [2]: TER[7]
IC25aHDF [6]: 2.7 µg/mL (≈ 6.54 µM)
IC25H9 [7]: 14.4 µg/mL (≈ 34.9 µM)
Teratogenicity in µP-hPST [3]: TER
In vivo teratogenicity (in words) [4]: Teratogen
In vivo teratogenicity [4]: TER
